The source of these data is patent US9181235B2, “Substituted pyridines for modulating the WNT signaling pathway” (NOVARTIS AG, priority 2010, dated 2015).

Structures are written as SMILES.

The experiment concerns Wnt signaling. The experiment is described as follows: Wnt-Luc reporter assay for pathway inhibition of Wnt signaling. Conditions: Wnt-Luc reporter cells co-cultured with L-cell Wnt3a cells, 24 hours, luciferase signal reduced by 50%. Type of experiment: cell-based, mouse (TM3 Wnt-Luc) or human (293 Wnt-Luc); not stated which. Here is the method:
This example provides a method that is useful for evaluating test compounds for inhibition of Wnt signaling.
Mouse leydig cell TM3 cells (obtained from American Type Culture Collection, ATCC, Manassas, Va.) are cultured in 1:1 mixture of Ham's F12 medium and Dulbecco's modified Eagle's medium (Gibco/Invitrogen, Carlsbad, Calif.) supplemented with 2.5% FBS (Gibco/Invitrogen, Carlsbad, Calif.) and 5% horse serum (Gibco/Invitrogen, Carlsbad, Calif.), 50 unit/mL penicillin and 50 μg/mL of streptomycin (Gibco/Invitrogen, Carlsbad, Calif.) at 37° C. with 5% CO2 in air atmosphere. TM3 cells in a 10 cm dish are co-transfected with 8 μg of STF-reporter plasmid containing a luciferase gene driven by Wnt-responsive elements and 2 μg of pcDNA3.1-Neo (Gibco/Invitrogen, Carlsbad, Calif.) with 30 μL of FuGENE6 (Roche Diagnostics, Indianapolis, Ind.) following the manufacturer's protocol. Stable cell lines (TM3 Wnt-Luc) were selected with 400 μg/mL of G418 (Gibco/Invitrogen, Carlsbad, Calif.). The TM3 Wnt-Luc cells and L-cell Wnt3a cells (obtained from American Type Culture Collection, ATCC, Manassas, Va.; cultured in Dulbecco's modified Eagle's medium (Gibco/Invitrogen, Carlsbad, Calif.) supplemented with 10% FBS (Gibco/Invitrogen, Carlsbad, Calif.) and 50 unit/mL penicillin and 50 μg/mL of streptomycin (Gibco/Invitrogen, Carlsbad, Calif.) at 37° C. with 5% CO2 in air atmosphere) are trypsinized and co-cultured into a 384-well plate with DMEM medium supplemented with 2% FBS, and treated with different concentrations of a compound of the invention. After 24 hours, the firefly luciferase activities are assayed with the Bright-Glo™ Luciferase Assay System (Promega, Madison, Wis.). The IC50 is measured when the effect of the compound reduces the luminescence signal by 50%.
This example provides another method that is useful for evaluating test compounds for inhibition of Wnt signaling.
Human embryonic kidney 293 cells (obtained from American Type Culture Collection, ATCC, Manassas, Va.) are cultured in DMEM medium (Gibco/Invitrogen, Carlsbad, Calif.) supplemented with 10% FBS (Gibco/Invitrogen, Carlsbad, Calif.), 50 unit/mL penicillin and 50 μg/mL of streptomycin (Gibco/Invitrogen, Carlsbad, Calif.) at 37° C. with 5% CO2 in air atmosphere. 293 cells in a 10 cm dish are co-transfected with 8 μg of STF-reporter plasmid containing a luciferase gene driven by Wnt-responsive elements and 2 μg of pcDNA3.1-Neo (Gibco/Invitrogen, Carlsbad, Calif.) with 30 μL of FuGENE6 (Roche Diagnostics, Indianapolis, Ind.) following the manufacturer's protocol. Stable cell lines (293 Wnt-Luc) were selected with 400 μg/mL of G418 (Gibco/Invitrogen, Carlsbad, Calif.). The 293 Wnt-Luc cells and L-cell Wnt3a cells (obtained from American Type Culture Collection, ATCC, Manassas, Va.) are trypsinized and co-cultured into a 384-well plate with DMEM medium supplemented with 2% FBS, and treated with different concentrations of a compound of the invention. After 24 hours, the firefly luciferase activities are assayed with the Bright-Glo™ Luciferase Assay System (Promega, Madison, Wis.). The IC50 is measured when the effect of the compound reduces the luminescence signal by 50%.
For orientation: In a reporter assay the amount or activity of a reporter protein is the signal.
The IC50 is the concentration at which inhibition is half-maximal. Read a low IC50 as inhibition by little substance. `Cc1cc(-c2ncc(CNC(=O)c3ccc(-c4cccc(F)c4)cn3)cc2F)ccn1` [compound 59, N-{[5-fluoro-6-(2-methylpyridin-4-yl)pyridin-3-yl]methyl}-5-(3-fluorophenyl)pyridine-2-carboxamide] displayed an IC50 of 0.29 nM.

`Cc1cc(-c2ncc(CNC(=O)c3ccc(-c4cnccn4)cn3)cc2F)ccn1` [compound 60, N-{[5-fluoro-6-(2-methylpyridin-4-yl)pyridin-3-yl]methyl}-5-(pyrazin-2-yl)pyridine-2-carboxamide]: the IC50 was determined as 0.26 nM.

In turn, `Cc1cc(-c2ncc(CNC(=O)c3ccc(-c4cnccn4)nc3)cc2F)ccn1` [compound 61, N-{[5-fluoro-6-(2-methylpyridin-4-yl)pyridin-3-yl]methyl}-6-(pyrazin-2-yl)pyridine-3-carboxamide] gave an IC50 of 0.62 nM.

Regarding `CC(=O)N1CCN(c2ccc(C(=O)NCc3cnc(-c4ccnc(C)c4)c(F)c3)nc2)CC1` [compound 62, 5-(4-acetylpiperazin-1-yl)-N-{[5-fluoro-6-(2-methylpyridin-4-yl)pyridin-3-yl]methyl}pyridine-2-carboxamide], inhibition was half-maximal at 11.8 nM (IC50).

For `Cc1cc(-c2ncc(CNC(=O)c3ccc(-c4cnccn4)cn3)cc2C)ccn1` [compound 63, N-((2′,3-dimethyl-2,4′-bipyridin-5-yl)methyl)-5-(pyrazin-2-yl)picolinamide], the IC50 came to 2.5 nM.

The compound `Cc1c(F)cccc1-c1ccc(C(=O)NCc2ccc(-c3ccnc(C(F)(F)F)c3)nc2)nc1` [compound 64, 5-(3-fluoro-2-methylphenyl)-N-({6-[2-(trifluoromethyl)pyridin-4-yl]pyridin-3-yl}methyl)pyridine-2-carboxamide] gave an IC50 of 11 nM.

For `Cc1ccc(F)cc1-c1ccc(C(=O)NCc2ccc(-c3ccnc(C(F)(F)F)c3)nc2)nc1` [compound 65, 5-(5-fluoro-2-methylphenyl)-N-({6-[2-(trifluoromethyl)pyridin-4-yl]pyridin-3-yl}methyl)pyridine-2-carboxamide], the IC50 worked out at 5.8 nM.

As to `Cc1cc(CNC(=O)c2ccc(-c3cnccn3)cn2)cnc1-c1cc[nH]c(=O)c1` [compound 66, N-((5-Methyl-6-(2-oxo-1,2-dihydropyridin-4-yl)pyridin-3-yl)methyl)-5-(pyrazin-2-yl)picolinamide], 45 nM corresponded to half-maximal inhibition (IC50).

With `Cc1ncccc1-c1ccc(C(=O)NCc2ccc(-c3ccnc(C(F)(F)F)c3)nc2)nc1` [compound 67, 5-(2-methylpyridin-3-yl)-N-({6-[2-(trifluoromethyl)pyridin-4-yl]pyridin-3-yl}methyl)pyridine-2-carboxamide], 6 nM corresponded to half-maximal inhibition (IC50).

The compound `O=C(NCc1ccc(N2CCS(=O)(=O)CC2)nc1)c1ccc(-c2cnccn2)cn1` [compound 68, N-((6-(1,1-dioxidothiomorpholino)pyridin-3-yl)methyl)-5-(pyrazin-2-yl)picolinamide] displayed a half-inhibitory concentration (IC50) of 38 nM.

Compound `O=C(NCc1ccc(N2CCS(=O)(=O)CC2)nc1)c1ccc(-c2cnccn2)nc1` [compound 69, N-((6-(1,1-dioxidothiomorpholino)pyridin-3-yl)methyl)-6-(pyrazin-2-yl)nicotinamide] returned an IC50 of 88 nM.

`Cc1cc(C(=O)NCc2cnc(-c3ccnc(C(F)(F)F)c3)c(C)c2)ccc1-c1ncccc1C` [compound 70, 3-methyl-N-({5-methyl-6-[2-(trifluoromethyl)pyridin-4-yl]pyridin-3-yl}methyl)-4-(3-methylpyridin-2-yl)benzamide]: the IC50 came to 27 nM.

As to `O=C(NCc1cnc(-c2ccnnc2)c(F)c1)c1ccc(-c2cnccn2)cn1` [compound 71, N-{[5-fluoro-6-(pyridazin-4-yl)pyridin-3-yl]methyl}-5-(pyrazin-2-yl)pyridine-2-carboxamide], it took 2.5 nM to reach half-maximal inhibition (IC50).

In turn, `O=C(NCc1ccc(-c2ccnc(C(F)(F)F)c2)nc1)c1ccc(-c2ccc(N3CCCC3=O)nc2)cn1` [compound 72, 6′-(2-Oxopyrrolidin-1-yl)-N-((2′-(trifluoromethyl)-[2,4′-bipyridin]-5-yl)methyl)-[3,3′-bipyridine]-6-carboxamide] came in with a half-maximal inhibitory concentration (IC50) of 1.9 nM.

Consider `Cc1cccnc1-c1ccc(C(=O)NCc2ccc(-c3ccnc(C(F)(F)F)c3)nc2)nc1` [compound 73, 5-(3-methylpyridin-2-yl)-N-({6-[2-(trifluoromethyl)pyridin-4-yl]pyridin-3-yl}methyl)pyridine-2-carboxamide], for which the IC50 worked out at 6 nM.

In the case of `Cc1cccnc1-c1ccc(C(=O)NCc2cnc(-c3ccnc(C(F)(F)F)c3)c(C)c2)nc1` [compound 74, N-({5-methyl-6-[2-(trifluoromethyl)pyridin-4-yl]pyridin-3-yl}methyl)-5-(3-methylpyridin-2-yl)pyridine-2-carboxamide], the IC50 was found to be 32 nM.

In the case of `Cc1cc(-c2ncc(CNC(=O)c3ccc(-c4ncccc4C)cn3)cc2F)ccn1` [compound 75, N-{[5-fluoro-6-(2-methylpyridin-4-yl)pyridin-3-yl]methyl}-5-(3-methylpyridin-2-yl)pyridine-2-carboxamide], it took 6.9 nM to reach half-maximal inhibition (IC50).

`Cc1cc(-c2ncc(CNC(=O)c3ccc(-c4cc(F)ccc4C)cn3)cc2F)ccn1` [compound 76, 5-(5-fluoro-2-methylphenyl)-N-{[5-fluoro-6-(2-methylpyridin-4-yl)pyridin-3-yl]methyl}pyridine-2-carboxamide] returned an IC50 of 1.2 nM.

Regarding `Cc1ccc(F)cc1-c1ccc(C(=O)NCc2cnc(-c3ccnc(C(F)(F)F)c3)c(C)c2)nc1` [compound 77, 5-(5-fluoro-2-methylphenyl)-N-({5-methyl-6-[2-(trifluoromethyl)pyridin-4-yl]pyridin-3-yl}methyl)pyridine-2-carboxamide], the IC50 was determined as 6.3 nM.

Compound `Cc1cc(C(=O)NCc2cnc(-c3ccnc(C(F)(F)F)c3)c(C)c2)ccc1-c1cnccn1` [compound 78, 3-methyl-N-({5-methyl-6-[2-(trifluoromethyl)pyridin-4-yl]pyridin-3-yl}methyl)-4-(pyrazin-2-yl)benzamide] gave a half-inhibitory concentration (IC50) of 13 nM.

Turning to `Cc1cc(C(=O)NCc2cnc(-c3ccnc(C(F)(F)F)c3)c(C)c2)ncc1-c1cnccn1` [compound 79, 4-methyl-N-({5-methyl-6-[2-(trifluoromethyl)pyridin-4-yl]pyridin-3-yl}methyl)-5-(pyrazin-2-yl)pyridine-2-carboxamide], the IC50 came out at 982 nM.

On to `Cc1cc(-c2ncc(CNC(=O)c3ccc(-c4cc(F)ccc4C)cn3)cc2C)ccn1` [compound 80, 5-(5-fluoro-2-methylphenyl)-N-{[5-methyl-6-(2-methylpyridin-4-yl)pyridin-3-yl]methyl}pyridine-2-carboxamide], for which the IC50 came to 4.2 nM.

On to `Cc1cc(-c2cnc(CNC(=O)c3ccc(-c4cnccn4)cn3)c(C)c2)ccn1` [compound 81, N-((2′,5-dimethyl-3,4′-bipyridin-6-yl)methyl)-5-(pyrazin-2-yl)picolinamide], for which the IC50 came out at 20 nM.

Consider `Cc1cc(C(=O)NCc2cnc(-c3ccnc(C(F)(F)F)c3)c(C)c2)ncc1-c1cc(F)ccc1C` [compound 82, 5-(5-fluoro-2-methylphenyl)-4-methyl-N-({5-methyl-6-[2-(trifluoromethyl)pyridin-4-yl]pyridin-3-yl}methyl)pyridine-2-carboxamide], for which 441 nM corresponded to half-maximal inhibition (IC50).

Compound `Cc1cc(C(=O)NCc2cnc(-c3ccnc(C(F)(F)F)c3)c(C)c2)ncc1-c1cccc(F)c1` [compound 83, 5-(3-fluorophenyl)-4-methyl-N-({5-methyl-6-[2-(trifluoromethyl)pyridin-4-yl]pyridin-3-yl}methyl)pyridine-2-carboxamide] yielded a half-inhibitory concentration (IC50) of 812 nM.

For `CC(=O)N1CCN(c2ccc(C(=O)NCc3cnc(-c4ccnc(C(F)(F)F)c4)c(F)c3)nc2)CC1` [compound 84, 5-(4-Acetylpiperazin-1-yl)-N-((3-fluoro-2′-(trifluoromethyl)-2,4′-bipyridin-5-yl)methyl)picolinamide], the IC50 was 2.7 nM.
